{
  "source": "patent US20260116844A1",
  "about": "“LIPID NANOPARTICLE FORMULATION COMPRISING IONIZED LIPIDS WITH BRANCHED STRUCTURE, AND USE THEREOF” (SurgiNex Co., Ltd., priority 2022, published 2026)",
  "origin": "cited, not measured here",
  "system": "blood coagulation factor FVII",
  "data": [
    {"smiles": "CCCCC/C=C\\C/C=C\\CCCCCCCCC(CCCCCCCC/C=C\\C/C=C\\CCCCC)OC(=O)CCCN(C)C", "note": "[Dlin-MC3-DMA]", "values": [
      {"measurement": "ED50", "setting": "mouse FVII model, siRNA delivery", "value": 5, "unit": "µg/kg"},
      {"measurement": "times more effective than existing ionized lipids", "setting": "mouse, in vivo", "value": "approximately 1000 times"}
    ]}
  ]
}
